{
  "source": "ChEMBL document CHEMBL1201862",
  "about": "“PubChem BioAssay data set” (2004)",
  "note": "Activity calls are given as the source filed them.",
  "data": [
    {"molecular_target": "Cytochrome P450 2C19 (Homo sapiens, UniProt P33261)", "sequence (P33261 whole entry)": "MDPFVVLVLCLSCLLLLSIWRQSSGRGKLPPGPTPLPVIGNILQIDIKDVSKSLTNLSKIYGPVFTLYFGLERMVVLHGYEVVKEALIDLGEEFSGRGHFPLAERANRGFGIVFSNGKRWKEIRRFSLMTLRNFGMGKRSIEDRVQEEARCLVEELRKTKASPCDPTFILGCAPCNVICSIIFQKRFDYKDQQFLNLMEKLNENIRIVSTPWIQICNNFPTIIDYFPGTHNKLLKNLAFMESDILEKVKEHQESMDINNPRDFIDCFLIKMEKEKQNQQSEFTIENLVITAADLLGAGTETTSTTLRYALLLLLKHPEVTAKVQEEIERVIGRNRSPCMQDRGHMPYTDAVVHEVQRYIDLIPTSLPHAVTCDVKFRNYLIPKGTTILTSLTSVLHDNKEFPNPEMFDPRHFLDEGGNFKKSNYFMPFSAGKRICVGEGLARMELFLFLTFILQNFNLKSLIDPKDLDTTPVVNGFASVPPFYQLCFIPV", "assay": "Cytochrome panel assay with activity outcomes. Panel member name: p450-cyp2c19 Compounds with AC50 equal or less than 10 uM are considered active", "type": "functional", "conditions": "read-out: AC50", "values": [
      {"smiles": "COCCN=C(S)N1C2CCC1CC(NC(=O)NC13CC4CC(CC(C4)C1)C3)C2", "note": "(centres undefined)", "AC50": "20 µM (inconclusive)"},
      {"smiles": "COc1ccc(N2CCN(Cc3nc4c(c(=O)[nH]c(=O)n4C)n3CCCc3ccccc3)CC2)cc1", "AC50": "28.2 µM (inconclusive)"}
    ]},
    {"molecular_target": "T1, Cytochrome P450 1A2 (Homo sapiens, UniProt P05177)", "T1 sequence (P05177 whole entry)": "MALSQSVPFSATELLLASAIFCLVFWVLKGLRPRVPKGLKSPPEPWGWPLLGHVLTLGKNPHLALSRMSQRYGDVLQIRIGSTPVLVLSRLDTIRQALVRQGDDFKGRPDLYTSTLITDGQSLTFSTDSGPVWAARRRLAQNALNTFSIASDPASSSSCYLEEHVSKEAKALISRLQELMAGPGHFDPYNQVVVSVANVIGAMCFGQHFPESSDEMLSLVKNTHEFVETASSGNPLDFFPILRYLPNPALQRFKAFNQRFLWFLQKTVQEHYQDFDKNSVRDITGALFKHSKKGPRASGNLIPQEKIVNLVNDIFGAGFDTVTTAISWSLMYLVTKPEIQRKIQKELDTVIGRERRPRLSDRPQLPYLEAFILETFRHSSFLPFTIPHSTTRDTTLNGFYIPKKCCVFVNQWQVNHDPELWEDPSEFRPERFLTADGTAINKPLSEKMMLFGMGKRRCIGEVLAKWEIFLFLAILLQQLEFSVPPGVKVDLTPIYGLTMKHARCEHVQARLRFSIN", "conditions": "not given", "values": [
      {"smiles": "Cn1c(=O)cc(OCC(=O)NCc2cccnc2)c2ccccc21", "AC50": "1.58 µM (inconclusive)"}
    ]},
    {"tested_on": "INS1", "assay": "beta cell apoptosis inhibitors, cytokine rescue, dose response, luminescence, retest (AID 449756);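 also: cell death triggered by IL-1 beta plus TNF-alpha plus IFN-gamma mixture; protective hits raise ATP signal compared with cytokine alone wells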", "type": "functional, cell-based", "conditions": "Rattus norvegicus", "values": [
      {"smiles": "COc1cc2c(cc1OC)C(NC(=O)C(F)(F)F)CNC2=O", "note": "(centres undefined)", "AC50": "> 260 µM (inconclusive)"},
      {"smiles": "O=NN(CCc1ccncc1)c1ccc(OCc2ccccc2)cc1", "AC50": "6.05 µM (active)"},
      {"smiles": "FC(F)(F)c1cnc(NN=C(S)Nc2ccc(Cl)cc2)c(Cl)c1", "AC50": "3.44 µM (active)"},
      {"smiles": "CCOC(=O)C1(Cc2cccc(Cl)c2)CCCN(C(=O)c2ccc(COC)s2)C1", "note": "(centres undefined)", "AC50": "> 260 µM (inactive)"},
      {"smiles": "O=C(Nc1ccc(C(=O)Nc2ccccc2Cl)cc1)c1cccnc1", "AC50": "1.06 µM (active)"},
      {"smiles": "CCCCSc1ccc(NC(=O)c2cccnc2)cc1", "AC50": "8.46 µM (active)"},
      {"smiles": "O=C(COC(=O)c1cn(-c2ccccc2)nc1-c1ccccc1)c1cccc([N+](=O)[O-])c1", "AC50": "4.4 µM (active)"}
    ]},
    {"tested_on": "not listed separately", "assay": "HEp-2 cell cytotoxicity, dose response, cytotoxicity control for RSV inhibitor project, HTS (AID 2410)", "type": "functional", "conditions": "human respiratory syncytial virus", "values": [
      {"smiles": "C=C1C[C@H]2[C@@H]3C=C(C)C4=CC(=O)CC[C@]4(C)[C@H]3CC[C@]2(C)[C@@]1(OC(C)=O)C(C)=O", "note": "[MELENGESTROL ACETATE]", "CC50": "26.5 µM (active)"},
      {"smiles": "C/C(=N\\N=C(/N)SC1CC(=O)N(c2cccc(Cl)c2)C1=O)c1cccs1", "note": "(centres undefined)", "CC50": "19.4 µM (active)"},
      {"smiles": "Cc1oc2c(cc(NS(=O)(=O)c3cccs3)c3ccccc32)c1C(=O)OC(C)C", "CC50": "20.3 µM (active)"},
      {"smiles": "Cc1cccc(-c2nc(C#N)c(NCc3ccco3)o2)c1", "CC50": "42.9 µM (active)"},
      {"smiles": "CC(=O)c1cccc(Nc2nc(-c3sc(C)nc3C)cs2)c1", "CC50": "> 50 µM (active)"},
      {"smiles": "Brc1ccc(-c2ncc3ccccn23)cc1", "CC50": "29.9 µM (active)"},
      {"smiles": "COc1ccc(CCNC(=O)c2ccc3c(c2)N(Cc2ccc(C)cc2)CCS3)cc1OC", "CC50": "35.9 µM (active)"}
    ]},
    {"molecular_target": "Cytochrome P450 2C9 (Homo sapiens, UniProt P11712)", "sequence (P11712 whole entry)": "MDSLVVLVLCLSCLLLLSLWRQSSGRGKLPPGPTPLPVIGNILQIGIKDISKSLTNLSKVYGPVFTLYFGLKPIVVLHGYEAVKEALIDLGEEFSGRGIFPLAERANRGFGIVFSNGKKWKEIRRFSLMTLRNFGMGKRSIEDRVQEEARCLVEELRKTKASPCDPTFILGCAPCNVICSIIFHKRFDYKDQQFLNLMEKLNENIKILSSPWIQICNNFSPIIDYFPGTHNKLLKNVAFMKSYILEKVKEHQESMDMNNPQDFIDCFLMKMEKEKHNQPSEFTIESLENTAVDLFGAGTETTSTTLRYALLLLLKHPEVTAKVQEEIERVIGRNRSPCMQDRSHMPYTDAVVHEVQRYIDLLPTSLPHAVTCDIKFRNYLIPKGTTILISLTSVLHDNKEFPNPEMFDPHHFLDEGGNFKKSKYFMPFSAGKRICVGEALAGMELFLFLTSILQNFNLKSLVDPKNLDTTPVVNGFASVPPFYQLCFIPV", "conditions": "not given", "values": [
      {"smiles": "CC(C(=O)c1c[nH]c2ccccc12)N1CCSCC1", "note": "(centres undefined)", "AC50": "31.6 µM (inconclusive)"},
      {"smiles": "Cn1c(=O)cc(OCC(=O)NCc2cccnc2)c2ccccc21", "AC50": "14.1 µM (inconclusive)"},
      {"smiles": "COC(=O)C(CCSC)NC(=O)c1cccc([N+](=O)[O-])c1", "note": "(centres undefined)", "AC50": "2 µM (inconclusive)"},
      {"smiles": "CC(O)(CS(=O)(=O)c1ccccc1)C(=O)Nc1cccc(C(F)(F)F)c1", "note": "(centres undefined)", "AC50": "35.5 µM (inconclusive)"},
      {"smiles": "NS(=O)(=O)c1cc2c(cc1Cl)N=C(CSCc1ccccc1)NS2(=O)=O", "note": "[BENZTHIAZIDE]", "AC50": "3.98 µM (inconclusive)"},
      {"smiles": "Cc1cccc(N(C)C(=S)Oc2ccc3ccccc3c2)c1", "note": "[TOLNAFTATE]", "AC50": "1.26 µM (inconclusive)"},
      {"smiles": "O=C(O)CCc1ccc(-c2ccc(Cl)cc2)n1CCC(=O)O", "AC50": "31.6 µM (inconclusive)"},
      {"smiles": "COc1ccc(Oc2ncc3nc(C)c(=O)n(-c4ccc(OC)cc4)c3n2)cc1", "AC50": "39.8 µM (inconclusive)"},
      {"smiles": "CC(O)(CS(=O)(=O)Cc1ccccc1Cl)C(=O)Nc1cccc(C(F)(F)F)c1", "note": "(centres undefined)", "AC50": "11.2 µM (inconclusive)"},
      {"smiles": "N#CCCn1c(=O)c(-c2cccc(C#N)c2)nc2cnc(Oc3cccc(Cl)c3)nc21", "AC50": "12.6 µM (inconclusive)"},
      {"smiles": "COCCN=C(S)N1C2CCC1CC(NC(=O)NC13CC4CC(CC(C4)C1)C3)C2", "note": "(centres undefined)", "AC50": "14.1 µM (inconclusive)"},
      {"smiles": "COc1ccc(N2CCN(Cc3nc4c(c(=O)[nH]c(=O)n4C)n3CCCc3ccccc3)CC2)cc1", "AC50": "39.8 µM (inconclusive)"}
    ]}
  ]
}
